Results published in patent US5922708A, “Heteroaryl-oxazolidinones” (Bayer Aktiengesellschaft, priority 1996, dated 1999).
Converted amounts (≈) assume the structure as drawn. Where two headings read alike, the source gives them in different places.

Tests used:
Assay type in all cases: cell-based
Staph. 9TV = test: MIC by serial dilution method on Iso-Sensitest agar
Experimental: (§1) The minimum inhibitory concentrations (MIC) were determined by the serial dilution method on Iso-Sensitest agar (Oxoid). For each test substance a series of agar plates were prepared which contained decreasing concentrations of the active substance, obtained by twofold dilution from one plate to the next. The agar plates were inoculated with a Multipoint inoculator (Denley). Inoculation was effected using overnight cultures of the pathogens which had been diluted beforehand so that each inoculation point contained ca. 10^4 colony forming particles. The inoculated agar plates were incubated at 37° C. and the bacterial growth was evaluated after ca. 20 hours. The MIC value (μg/ml) indicates the lowest active substance concentration at which no growth was detectable with the naked eye.

Staph. 25701 = test: as above
Experimental: as §1

Staph. 48N = test: as above
Experimental: as §1

Psdm. Bonn = test: as above
Experimental: as §1

Klebs. 57 USA = test: as above
Experimental: as §1

Staph. 133 = test: as above
Experimental: as §1

E. coli Neumann = test: as above; settings: Escherichia coli
Experimental: as §1

[1] = test system: Mycobacterium smegmatis DSM 43078; test: MIC for rapidly growing mycobacteria, broth microdilution method; settings: Mycolicibacterium smegmatis, DSM43078, inoculum 4.20E + 04 [/ml], 37° C., 2-4 days
Experimental: For rapidly growing mycobacteria the MIC were determined on the basis of the broth microdilution method described by Swenson [cf. J. M. Swenson, C. Thomberry, U. A. Silcox, Rapidly growing mycobacteria. Testing of susceptibility to 34 antimicrobial agents by broth microdilution. Antimicrobial Agents and Chemotherapy, vol. 22, 186-192 (1982)]. The brain-heart extract medium treated with 0.1 vol.% of Tween 80 was an exception.
The mycobacterial strains used were obtained from the DSM (Deutsche Sammlung von Mikroorganismen (German Collection of Microorganisms), Brunswick). They were incubated in a moist chamber at 37° C.
The MIC values were evaluated after 2-4 days, when the preparation-free controls were opaque due to growth.

[2] = Staph. 9TV, agar, 37° C., ca. 20 hours, read-out: MIC
[3] = Staph. 25701, agar, 37° C., ca. 20 hours, read-out: MIC
[4] = Staph. 48N, agar, 37° C., ca. 20 hours, read-out: MIC
[5] = Klebs. 57 USA, agar, 37° C., ca. 20 hours, read-out: MIC
[6] = Staph. 133, agar, 37° C., ca. 20 hours, read-out: MIC
[7] = E. coli Neumann, agar, 37° C., ca. 20 hours, read-out: MIC

In the case of `O=C(CF)NC[C@H]1CN(c2ccc(-c3cccnc3)s2)C(=O)O1` [Example 18], the MIC (Staph. 9TV; 20 h) is reported as 1 µg/mL (≈ 2.98 µM), the MIC (Staph. 25701; 20 h) is reported as 4 µg/mL (≈ 11.9 µM) and the MIC (Staph. 48N; 20 h) is reported as 4 µg/mL (≈ 11.9 µM). The MIC (Psdm. Bonn; 20 h) was over 64 µg/mL, the MIC (Klebs. 57 USA; 20 h) was over 64 µg/mL and the MIC (Staph. 133; 20 h) was 2 µg/mL (≈ 5.96 µM). The MIC (E. coli Neumann; 20 h) was over 64 µg/mL.

Work on `CCCOC(=O)NC[C@H]1CN(c2ccc(-c3cccnc3)s2)C(=O)O1` [Example 20] yielded an MIC (Staph. 9TV; [2]) of 2 µg/mL (≈ 5.53 µM), an MIC (Staph. 25701; [3]) of 2 µg/mL (≈ 5.53 µM) and an MIC (Staph. 48N; [4]) of 2 µg/mL (≈ 5.53 µM). For the same compound, the MIC (Psdm. Bonn; Psdm. Bonn, agar, 37° C., ca. 20 hours, read-out: MIC) was over 64 µg/mL, the MIC (Klebs. 57 USA; [5]) was over 64 µg/mL and the MIC (Staph. 133; [6]) was 2 µg/mL (≈ 5.53 µM). It also gave an MIC (E. coli Neumann; [7]) of over 64 µg/mL.

For `COC(=O)NC[C@H]1CN(c2ccc(Br)c(C)n2)C(=O)O1` [Example 25], the MIC (Staph. 9TV; [2]) was 1 µg/mL (≈ 2.91 µM), the MIC (Staph. 25701; [3]) was 2 µg/mL (≈ 5.81 µM) and the MIC (Staph. 48N; [4]) was 2 µg/mL (≈ 5.81 µM). It also gave an MIC (Klebs. 57 USA; [5]) of over 64 µg/mL, an MIC (Staph. 133; [6]) of 2 µg/mL (≈ 5.81 µM) and an MIC (E. coli Neumann; [7]) of over 64 µg/mL.

`NNC(=O)c1ccncc1` [Isoniazid] gave an MIC [1] of 2 µg/mL.
